# Test results as given in patent US6527981B1, “Azole/amine oxide preservatives” (Lonza Inc., priority 1999, dated 2003).
# Where two headings read alike, the source gives them in different places.
# Columns and labels:
# [1] = tested on: T. versicolor (white rot fungi); assay: agar dilution plate method, wood rot fungi (MIC, IC50, percent retardation); type: cell-based; conditions: for MIC: Trametes versicolor
# [2] = tested on: G. trabeum (brown rot fungi); assay: as above; type: cell-based; conditions: for MIC: Gloeophyllum trabeum
# [3] = tested on: P. placenta (brown rot fungi); assay: as above; type: cell-based
# [4] = tested on: C. globosum (soft rot decay fungi); assay: as above; type: cell-based; conditions: for MIC: Chaetomium globosum; for C. globosum IC50 / IC50 C. globosum: Table2D curve fitting; for MIC C. globosum: Table 8; for MIC C. globosum / IC50 C. globosum: ppm of amine oxide or didecyldimethyl ammonium chloride
# [5] = 20° C., cited from earlier work; for Solubility in Water^b: Material Safety Data Sheet
# [6] = amine oxide alone, 100% growth retardation, read-out: MIC (ppm of amine oxides) T. versicolor
# [7] = amine oxide alone, 100% growth retardation, read-out: MIC (ppm of amine oxides) G. trabeum
# [8] = amine oxide alone, 100% growth retardation, read-out: MIC (ppm of amine oxides) P. placenta
# [9] = amine oxide alone, 100% growth retardation, read-out: MIC (ppm of amine oxides) C. globosum
# [10] = amine oxide alone, 100% growth retardation
# [11] = azole alone, read-out: T. versicolor MIC
# [12] = azole alone, Table2D curve fitting
# [13] = azole alone, read-out: G. trabeum MIC
# [14] = azole alone, read-out: P. placenta MIC
# [15] = azole alone, read-out: C. globosum MIC
# [16] = Table 8, ppm of amine oxide or didecyldimethyl ammonium chloride
# [17] = ppm of amine oxide or didecyldimethyl ammonium chloride, Table2D curve fitting
compound,measurement,setting,value
"CCCCCCCCCCCCCCCCCC[N+](C)(C)[O-] [Octadecyl-DMAO, octadecyl dimethylamine oxide]",MIC,[1]; [6],> 1000 µg/mL
same,"Qa, concentration of amine oxide alone required to yield 100% retardation, T. versicolor",[1]; amine oxide alone,1000 ppm
same,MIC,[2]; [7],> 1000 µg/mL
same,"Qa, concentration of amine oxide alone required to yield 100% retardation, G. trabeum",[2]; amine oxide alone,1000 ppm
same,"Qa, concentration of amine oxide alone required to yield 100% retardation, P. placenta",[3]; amine oxide alone,1000 ppm
same,MIC,[3]; [8],> 1000 µg/mL
same,MIC,[4]; [9],> 1000 µg/mL
"CCCCCCCC[N+](C)(C)[O-] [Octyldimethylamine oxide, octyl dimethylamine oxide]",MIC,[1]; [6],750 µg/mL
same,"Qa, concentration of amine oxide alone required to yield 100% retardation, T. versicolor",[1]; amine oxide alone,750 ppm
same,MIC,[2]; [7],1000 µg/mL
same,"Qa, concentration of amine oxide alone required to yield 100% retardation, G. trabeum",[2]; amine oxide alone,1000 ppm
same,"Qa, concentration of amine oxide alone required to yield 100% retardation, P. placenta",[3]; amine oxide alone,1000 ppm
same,MIC,[3]; [8],1000 µg/mL
same,MIC,[4]; [9],> 1000 µg/mL
CCCCCCCC/C=C\CCCCCCCC[N+](C)(C)[O-] [Oleyl-DMAO],MIC (ppm of amine oxides) T. versicolor,[1]; [10],>1000 ppm
same,MIC (ppm of amine oxides) G. trabeum,[2]; [10],>1000 ppm
same,MIC (ppm of amine oxides) P. placenta,[3]; [10],>1000 ppm
same,MIC (ppm of amine oxides) C. globosum,[4]; [10],>1000 ppm
"CCCC1COC(Cn2cncn2)(c2ccc(Cl)cc2Cl)O1 (stereo not drawn) [Propiconazole, propiconazole]",MIC,[1]; [11],50 µg/mL
same,"Qb, concentration of azole alone required to yield 100% retardation, T. versicolor",[1]; azole alone,50 ppm
same,T. versicolor IC50,[1]; [12],3 ppm
same,MIC,[2]; [13],> 50 µg/mL
same,"Qb, concentration of azole alone required to yield 100% retardation, G. trabeum",[2]; azole alone,50 ppm
same,G. trabeum IC50,[2]; [12],0.9 ppm
same,"Qb, concentration of azole alone required to yield 100% retardation, P. placenta",[3]; azole alone,50 ppm
same,P. placenta IC50,[3]; [12],0.7 ppm
same,MIC,[3]; [14],50 µg/mL
same,MIC,[4]; [15],> 50 µg/mL
same,C. globosum IC50,[4]; azole alone,11.7 ppm
"CC(C)(C)C(O)(CCc1ccc(Cl)cc1)Cn1cncn1 (stereo not drawn) [Tebuconazole, tebuconazole]",MIC,[1]; [11],25 µg/mL
same,"Qb, concentration of azole alone required to yield 100% retardation, T. versicolor",[1]; azole alone,25 ppm
same,T. versicolor IC50,[1]; [12],2.3 ppm
same,MIC,[2]; [13],10 µg/mL
same,"Qb, concentration of azole alone required to yield 100% retardation, G. trabeum",[2]; azole alone,10 ppm
same,G. trabeum IC50,[2]; [12],<0.1 ppm
same,"Qb, concentration of azole alone required to yield 100% retardation, P. placenta",[3]; azole alone,50 ppm
same,P. placenta IC50,[3]; [12],1.7 ppm
same,MIC,[3]; [14],50 µg/mL
same,MIC,[4]; [15],50 to 500 µg/mL
same,C. globosum IC50,[4]; azole alone,34.5 ppm
same,Solubility in Water^b,[5],32 ppm at 20 °C
"CCCCCCCCCCCCCC[N+](C)(C)[O-] [Tetradecyl-DMAO, tetradecyl dimethylamine oxide]",MIC,[1]; [6],> 1000 µg/mL
same,"Qa, concentration of amine oxide alone required to yield 100% retardation, T. versicolor",[1]; amine oxide alone,1000 ppm
same,MIC,[2]; [7],> 1000 µg/mL
same,"Qa, concentration of amine oxide alone required to yield 100% retardation, G. trabeum",[2]; amine oxide alone,1000 ppm
same,"Qa, concentration of amine oxide alone required to yield 100% retardation, P. placenta",[3]; amine oxide alone,1000 ppm
same,MIC,[3]; [8],> 1000 µg/mL
same,MIC,[4]; [9],> 1000 µg/mL
"CC(C)(C)C(=O)C(Oc1ccc(Cl)cc1)n1cncn1 (stereo not drawn) [Triadimefon, triadimefon]",Solubility in Water^b,[5],64 ppm at 20 °C
same,Solubility in water^a,"[5]; The Pesticide Manual, 11th Edition",64 ppm/20 °C
branched alkyl (C10-C14) dimethylamine oxide [Branched alkyl (C10-C14) DMAO],IC50 T. versicolor,[1],84 ppm
same,MIC (ppm of amine oxides) T. versicolor,[1],500 ppm
same,MIC T. versicolor,[1],500 ppm
same,"Qa, concentration of amine oxide alone required to yield 100% retardation, T. versicolor",[1],500 ppm
same,IC50 G. trabeum,[2],44 ppm
same,MIC (ppm of amine oxides) G. trabeum,[2],250 ppm
same,MIC G. trabeum,[2],250 ppm
same,"Qa, concentration of amine oxide alone required to yield 100% retardation, G. trabeum",[2],250 ppm
same,IC50 P. placenta,[3],89 ppm
same,MIC (ppm of amine oxides) P. placenta,[3],500 ppm
same,MIC P. placenta,[3],500 ppm
same,"Qa, concentration of amine oxide alone required to yield 100% retardation, P. placenta",[3],500 ppm
same,MIC C. globosum,[4],>1000 ppm
same,MIC (ppm of amine oxides) C. globosum,[4]; [10],>1000 ppm
same,IC50 C. globosum,[4],153 ppm
coco-alkyl (C12-C16) dimethylamine oxide [Coco-DMAO],MIC T. versicolor,[1]; [16],750 ppm
same,"Qa, concentration of amine oxide alone required to yield 100% retardation, T. versicolor",[1]; amine oxide alone,750 ppm
same,MIC (ppm of amine oxides) T. versicolor,[1]; [10],750 ppm
same,IC50 T. versicolor,[1]; [17],51 ppm
same,MIC G. trabeum,[2]; [16],500 ppm
same,"Qa, concentration of amine oxide alone required to yield 100% retardation, G. trabeum",[2]; amine oxide alone,500 ppm
same,MIC (ppm of amine oxides) G. trabeum,[2]; [10],500 ppm
same,IC50 G. trabeum,[2]; [17],9 ppm
same,MIC P. placenta,[3]; [16],1000 ppm
same,MIC (ppm of amine oxides) P. placenta,[3]; [10],500-1000 ppm
same,IC50 P. placenta,[3]; [17],5 ppm
same,MIC C. globosum,[4],>1000 ppm
same,MIC (ppm of amine oxides) C. globosum,[4]; [10],>1000 ppm
same,IC50 C. globosum,[4],47 ppm
coco-alkyl-di(hydroxyethyl)amine oxide [Coco-di(hydroxyethyl)-amine oxide],MIC (ppm of amine oxides) T. versicolor,[1]; [10],500 ppm
same,MIC (ppm of amine oxides) G. trabeum,[2]; [10],500 ppm
same,MIC (ppm of amine oxides) P. placenta,[3]; [10],500 ppm
same,MIC (ppm of amine oxides) C. globosum,[4]; [10],>1000 ppm
tallow-alkyl-di(hydroxyethyl)amine oxide [Tallow-di(hydroxyethyl)-amine oxide],MIC (ppm of amine oxides) T. versicolor,[1]; [10],>1000 ppm
same,MIC (ppm of amine oxides) G. trabeum,[2]; [10],>1000 ppm
same,MIC (ppm of amine oxides) P. placenta,[3]; [10],>1000 ppm
same,MIC (ppm of amine oxides) C. globosum,[4]; [10],>1000 ppm
